In US12036246B2, “Compositions and methods for enhancing cancer chemotherapy” (priority 2017, dated 2024):

Experiments:
PTHrP = PTHrP expression in tumors; format: in vivo; details: FIG. 77, FIG. 89
A549 lung cancer cells = test: Cell cycle phase distribution of A549 tumor cells; format: cell-based; details: selenium 300 ng/mL, fish oil 75 μM (DHA content), Alimta 1 μM, Tarceva 5 μM
[1] = tested on: A549 lung cancer sphere cells; test: Cell cycle phase distribution of A549 sphere cells; format: cell-based; details: Alimta 1 μM, Tarceva 5 μM, fish oil 75 μM, selenium 300 ng/mL
PD-1 = PD-1 in T cells of animal models; format: in vivo; details: FIG. 70-72
[2] = Loss of adipose tissue and muscle mass in tumor bearing mice; format: in vivo; details: FIG. 75
From the text: Individuals with cancer frequently present with weight loss, due to loss of fatty tissue and muscle wasting (cachexis). This weight loss can result in serious health issues in addition to those resulting directly from tumor growth and progression. […] Mice having tumors, with or without treatment with chemotherapeutic agents also experience cachexis.

IL-6 = IL-6 expression in tumors; details: FIG. 77
A549 sphere cells = test: Proliferation of A549 sphere cells; format: cell-based; details: FIG. 43-44
implanted tumor = details: 28 days after tumor implantation, FIG. 13
From the text: 8A provides an example of a typical testing protocol for such a nutritional supplement (“Nutrawell”) and the chemotherapeutic drug Tarceva. As shown, 28 days after tumor implantation mice were sacrificed and the tumor characterized.

lung cancer cells [3] = test: Metastasis from implantation site of lung cancer cells; format: in vivo, mice; details: FIG. 63
HSP90 = test: Western blot of HSP90 in tumors, animal models of triple negative human breast cancer; format: in vivo; details: FIG. 111
Method: Studies of the effect of a nutritional supplement containing fish oil and selenium, both alone and in combination with chemotherapeutic agents, were also studied using in vivo animal models of triple negative human breast cancer. Animals were treated with a nutritional supplement containing fish oil and selenium (for example, a formulation as described in Table 1), Taxol (“tax”), Adriamycin (“adyri”), Avastin, or a combination of the nutritional supplement and individual chemotherapeutic agents.

Cytochrome C = test: Western blot of Cytochrome C in tumors; format: in vivo; details: FIG. 38
From the text: Results of similar studies directed to Bc1-2, p-Bc1-2, and Caspase 3 are shown in FIG. 36; results for similar studies directed to Caspase 8 are shown in FIG. 37. […] These effects are enhanced, in several instances synergistically, when a nutritional supplement containing fish oil and selenium is used in combination with a chemotherapeutic drug.

[4] = tested on: vascularization of tumors; test: Tumor-associated blood vessels in murine models of breast cancer; format: in vivo, mice; details: FIG. 24-31
Method: In an exemplary study mice were treated as shown in the scheme depicted in FIG. 23.

p-AXL = test: Western blot of p-AXL in tumors, animal models of triple negative human breast cancer; format: in vivo; details: FIG. 112
ATGL = ATGL expression in animal models of human cancer; format: in vivo; details: FIG. 89
From the text: (§1) As shown in FIG. 89 (lower left panel), expression of UCP-1 and ATGL is increases in tumor tissue (T) relative to non-tumor tissue (NT).

UCP-1 = UCP-1 expression in animal models of human cancer; format: in vivo; details: FIG. 89
From the text: as §1

[5] = tested on: proliferative index marker; test: Proliferative index marker in mammary gland tumors by immunocytochemistry; format: in vivo, murine; details: FIG. 11
From the text: The effects of a nutritional supplement that includes fish oil and selenium in combination with chemotherapeutic drugs were also identified in in vivo studies, where the Ki-61 proliferative index marker was identified in mammary gland tumors of murine models by immunocytochemistry.

breast cancer cells = test: Metastatic tumor load in mammary glands, animals implanted with breast cancer cells; format: in vivo; details: FIG. 65
AXL = test: Western blot of AXL in drug resistant HCC827GR cells; format: cell-based, human; details: Iressa 1 μM, FIG. 105, 108
HCC827Gr cells [6] = test: Viable resistant HCC827Gr cells in culture; format: cell-based, human; details: FIG. 54
[7] = tested on: Iressa-resistant HCC827GR cells; test: Cell cycle phase distribution of Iressa-resistant cells, co-treatment; format: cell-based, human; details: Iressa 1 μM
[8] = tested on: drug resistant HCC827Gr lung cancer cells; test: Proliferation of drug resistant HCC827Gr cells; format: cell-based, human
HCC827Gr cells [9] = test: Colony formation by resistant HCC827Gr cells; format: cell-based, human; details: 0.5 μM Iressa, FIG. 59-60
lung cancer cells [10] = test: Tumor weight in mice implanted with lung cancer cells, Iressa; format: in vivo
[11] = tested on: triple-negative breast cancer cell line (MDA-MB-231); test: Proliferation of MDA-MB-231 breast cancer cells; format: cell-based; details: 72 hours, FIG. 8-9
[12] = tested on: MDA-MB-231 breast cancer sphere cells; test: Proliferation of MDA-MB-231 sphere cells; format: cell-based; details: FIG. 45-46
[13] = tested on: MDA-MB-231 breast cancer sphere cells; test: Cell cycle phase distribution, Cisplatin / selenium / fish oil (Table 4); format: cell-based; details: selenium 500 ng/mL, fish oil 75 μM (DHA content), Cisplatin 5 μg/mL

## C#Cc1cccc(Nc2ncnc3cc(OCCOC)c(OCCOC)cc23)c1 [Tarceva]
PTHrP
  PTHrP expression: can actually increase expression of such gene products
A549 lung cancer cells
  G0/G1 (cell cycle phase distribution): 70.9%
  G2/M (cell cycle phase distribution): 14.8%
  S (cell cycle phase distribution): 14.2%
  SubG1 (cell cycle phase distribution): 5.9%
[1]
  G0/G1 (cell cycle phase distribution): 58.3%
  G2/M (cell cycle phase distribution): 8.9%
  S (cell cycle phase distribution): 32.7%
  SubG1 (cell cycle phase distribution): 42.8%
PD-1
  PD-1 expression in T cells: marginally reduced
[2]
  loss of white adipose tissue (WAT), brown adipose tissue (BAT), and muscle mass (gastroc): only slightly relieved
IL-6
  IL-6 expression in tumors: can actually increase expression of such gene products
A549 sphere cells
  proliferation of A549 sphere cells: similarly resistant to Tarceva
Implanted tumor
  tumor weight distribution, large (>5 g) tumors: still showed a significant number of such large tumors
Lung cancer cells [3]
  metastasis of tumor cells from the implantation site: reduced to some extent

## CC(=O)O[C@H]1C(=O)[C@@]2(C)[C@H]([C@H](OC(=O)c3ccccc3)[C@]3(O)C[C@H](OC(=O)[C@H](O)[C@@H](NC(=O)c4ccccc4)c4ccccc4)C(C)=C1C3(C)C)[C@]1(OC(C)=O)CO[C@@H]1C[C@@H]2O [Taxol, paclitaxel]
PTHrP
  PTHrP expression: actually increased expression when used alone
HSP90
  HSP90 expression in tumor samples: minimal impact on HSP90 expression
Cytochrome C
  Cytochrome C: little to no increase
[4]
  blood vessels associated with the tumors: reduce the number of blood vessels associated with the tumor and also reduce their diameter
p-AXL
  p-AXL content of the tumor: reduces p-AXL expression
ATGL
  expression of ATGL: decreased somewhat
UCP-1
  expression of UCP-1: decreased somewhat
[5]
  number of Ki-61 positive cells (proliferative index): reduces the number of positive cells
Breast cancer cells
  metastatic tumor load in the mammary glands: modest reduction in tumor loading of mammary glands

## COc1cccc2c1C(=O)c1c(O)c3c(c(O)c1C2=O)C[C@@](O)(C(=O)CO)C[C@@H]3O[C@H]1C[C@H](N)[C@H](O)[C@H](C)O1 [Adriamycin, doxorubicin]
Cytochrome C
  Cytochrome C: little to no increase
p-AXL
  p-AXL content of the tumor: little to no apparent reduction in p-AXL expression
[5]
  number of Ki-61 positive cells (proliferative index): reduces the number of positive cells
Breast cancer cells
  metastatic tumor load in the mammary glands: more effective than Taxol in reducing metastatic tumor load

## COc1cc2ncnc(Nc3ccc(F)c(Cl)c3)c2cc1OCCCN1CCOCC1 [Iressa]
AXL
  AXL expression: had no effect
HCC827Gr cells [6]
  number of viable resistant HCC827Gr cells: does not significantly decrease the number of viable resistant HCC827Gr cells
PD-1
  PD-1 expression in T cells: marginally reduced
[7]
  G0/G1 (cell cycle phase distribution): 76.1%
  G2/M (cell cycle phase distribution): 18.9%
  S (cell cycle phase distribution): 4.9%
  SubG1 (cell cycle phase distribution): 1.51%
[8]; HCC827Gr cells, FIG. 57-58
  reduction in cell proliferation: ≤ 20%
[8]; Homo sapiens, read-out: proliferation, % of control values
  activity at 1 µM: ~80%
A549 sphere cells
  proliferation of A549 sphere cells: relatively resistant to treatment with Iressa
HCC827Gr cells [9]
  colony formation by HCC827Gr cells: Significant colony formation
Lung cancer cells [10]; FIG. 16
  tumor weight: only a marginal reduction in tumor weight
Lung cancer cells [10]; FIG. 16 top right panel
  tumor weight distribution: most of the mice having >6 gram tumors

## Avastin: chemotherapeutic drug commonly used to treat breast cancer
HSP90
  HSP90 expression in tumor samples: reduced to some extent
p-AXL
  p-AXL content of the tumor: little to no apparent reduction in p-AXL expression

## CC(=O)O[C@@]12CO[C@@H]1C[C@H](O)[C@@]1(C)C(=O)[C@H](O)C3=C(C)[C@@H](OC(=O)[C@H](O)[C@@H](NC(=O)OC(C)(C)C)c4ccccc4)C[C@@](O)([C@@H](OC(=O)c4ccccc4)[C@H]21)C3(C)C [Docetaxel]
[11]
  MDA-MB-231 cell proliferation: provided a reduction in proliferation
[12]
  proliferation of MDA-MB-231 breast cancer sphere cells: moderate sensitivity to Docetaxel

## N.N.[Cl][Pt][Cl] [Cisplatin]
[12]
  proliferation of MDA-MB-231 breast cancer sphere cells: relatively resistant
[13]
  G0/G1 (cell cycle phase distribution): 48.5%
  G2/M (cell cycle phase distribution): 6.1%
  S (cell cycle phase distribution): 45.4%
  SubG1 (cell cycle phase distribution): 11.7%

## Nc1nc2[nH]cc(CCc3ccc(C(=O)N[C@@H](CCC(=O)O)C(=O)O)cc3)c2c(=O)[nH]1 [Alimta]
A549 lung cancer cells
  G0/G1 (cell cycle phase distribution): 58.4%
  G2/M (cell cycle phase distribution): 5.3%
  S (cell cycle phase distribution): 36.3%
  SubG1 (cell cycle phase distribution): 45%
[1]
  G0/G1 (cell cycle phase distribution): 62.4%
  G2/M (cell cycle phase distribution): 7.2%
  S (cell cycle phase distribution): 30.4%
  SubG1 (cell cycle phase distribution): 20.9%
